This passage reports Bliss interaction score results from the supplement of paper PMC10627819.

Assay in all cases: Bliss interaction score (quartile over a dose matrix) (fitness difference); higher = more antagonism (negative = synergy)
One assay relates to S. aureus Newman. A digest of the protocol: (§1)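 Values were capped at 1 after dividing OD595 at stationary-phase entry by the plate's robust no-drug mean. This ratio is fitness, and single-drug fitness was inferred from the combination data. The Bliss score is observed minus product-expected fitness, given as quartiles over technical, biological and donor/recipient replicates.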

A further assay relates to S. pneumoniae D39V. Summed up: as §1
The next assay deals with B. subtilis 168. Summed up:
as §1

For a further assay, the system named is S. aureus DSM 20231. A digest of the protocol:
as §1

Each structure is given as a SMILES string.
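Further: first quartile when negative (synergy) and third quartile when positive (antagonism).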

Turning to `O=C(O)[C@H]1/C(=C/CO)O[C@@H]2CC(=O)N21` [Clavulanic] + COc1cc(Cc2cnc(N)nc2N)cc(OC)c1OC [Trimethoprim], the Bliss interaction score in the assay with S. aureus Newman was 0.221; in the assay on S. pneumoniae D39V it was 0.116; in the assay on B. subtilis 168, 0.101; with S. aureus DSM 20231 it was -0.186.
For `O=C(O)[C@H]1/C(=C/CO)O[C@@H]2CC(=O)N21` [Clavulanic] + COc1ccc(C[C@H](N)C(=O)N[C@H]2[C@@H](O)[C@H](n3cnc4c(N(C)C)ncnc43)O[C@@H]2CO)cc1 [Puromycin], in that order: -0.0706, 0.0764, 0.0481 and 0.0964.
Turning to `O=C(O)[C@H]1/C(=C/CO)O[C@@H]2CC(=O)N21` [Clavulanic] + COc1cccc2c1C(=O)c1c(O)c3c(c(O)c1C2=O)C[C@@](O)(C(=O)CO)C[C@@H]3O[C@H]1C[C@H](N)[C@H](O)[C@H](C)O1 [Doxorubicin], the Bliss interaction score turned out to be 0.0836 in the assay on S. aureus Newman, 0.0444 in the assay with S. pneumoniae D39V, 0.067 in the assay with B. subtilis 168 and 0.0451 with S. aureus DSM 20231.
For `O=C(O)[C@H]1/C(=C/CO)O[C@@H]2CC(=O)N21` [Clavulanic] + C[C@@H]1O[C@@H]1P(=O)(O)O [Fosfomycin], in that order: 0.258, -0.0291, -0.089 and 0.0474.
For `O=C(O)[C@H]1/C(=C/CO)O[C@@H]2CC(=O)N21` [Clavulanic] + C[C@@H](O)[C@H]1C(=O)N2C(C(=O)O)=C(SCCNC=N)C[C@H]12 [Imipenem], in that order: -0.0736, 0.0559, 0.108 and 0.094.
For `O=C(O)[C@H]1/C(=C/CO)O[C@@H]2CC(=O)N21` [Clavulanic] + C[C@H]1COc2c(N3CCN(C)CC3)c(F)cc3c(=O)c(C(=O)O)cn1c23 [Levofloxacin], in that order: 0.242, -0.197, -0.024 and -0.222.
In the case of `O=C(O)[C@H]1/C(=C/CO)O[C@@H]2CC(=O)N21` [Clavulanic] + C[C@H]1c2cccc(O)c2C(=O)C2=C(O)[C@]3(O)C(=O)C(C(N)=O)=C(O)[C@@H](N(C)C)[C@@H]3[C@@H](O)[C@@H]21 [Doxycycline], the Bliss interaction score with S. aureus Newman is 0.268; in the assay with S. pneumoniae D39V, -0.0431; in the assay on B. subtilis 168 it was 0.0656; with S. aureus DSM 20231, -0.273.
For `O=C(O)[C@H]1/C(=C/CO)O[C@@H]2CC(=O)N21` [Clavulanic] + C[n+]1ccc(-c2cc[n+](C)cc2)cc1 [Paraquat], in that order: -0.0709, 0.0522, -0.0541 and 0.0962.
With `O=C(O)[C@H]1/C(=C/CO)O[C@@H]2CC(=O)N21` [Clavulanic] + Cc1cc(NS(=O)(=O)c2ccc(N)cc2)no1 [Sulfamethoxazol], the Bliss interaction score was -0.0365 in the assay with S. aureus Newman, 0.0674 in the assay on S. pneumoniae D39V, 0.0509 in the assay on B. subtilis 168 and 0.0966 with S. aureus DSM 20231.
For `O=C(O)[C@H]1/C(=C/CO)O[C@@H]2CC(=O)N21` [Clavulanic] + Cc1ncc([N+](=O)[O-])n1CCO [Metronidazole], in that order: -0.112, 0.0632, 0.0385 and 0.0966.
For `O=C(O)[C@H]1/C(=C/CO)O[C@@H]2CC(=O)N21` [Clavulanic] + Cc1onc(-c2ccccc2)c1C(=O)N[C@@H]1C(=O)N2[C@@H]1SC(C)(C)[C@@H]2C(=O)O [Oxacillin], in that order: 0.0727, -0.051, 0.0555 and 0.0346.
For `O=C(O)[C@H]1/C(=C/CO)O[C@@H]2CC(=O)N21` [Clavulanic] + Clc1ccc(COC(Cn2ccnc2)c2ccc(Cl)cc2Cl)c(Cl)c1 [Miconazole], in that order: -0.0736, 0.0698, 0.0639 and 0.101.
Take `O=C(O)[C@H]1/C(=C/CO)O[C@@H]2CC(=O)N21` [Clavulanic] + Cn1nnc(-c2ccc(-c3ccc(N4C[C@H](CO)OC4=O)cc3F)cn2)n1 [Tedizolid]: the Bliss interaction score was 0.255 with S. aureus Newman, -0.0878 in the assay with S. pneumoniae D39V, 0.0942 in the assay with B. subtilis 168 and -0.18 in the assay with S. aureus DSM 20231.
For the molecule `O=C(O)[C@H]1/C(=C/CO)O[C@@H]2CC(=O)N21` [Clavulanic] + N[C@@H]1CONC1=O [CycloserineD], the Bliss interaction score was -0.0992 in the assay with S. aureus Newman, -0.0906 with S. pneumoniae D39V, 0.0614 with B. subtilis 168 and 0.116 in the assay on S. aureus DSM 20231.
With `O=C(O)[C@H]1/C(=C/CO)O[C@@H]2CC(=O)N21` [Clavulanic] + O=C1CN(/N=C/c2ccc([N+](=O)[O-])o2)C(=O)N1 [Nitrofurantoin], the Bliss interaction score in the assay with S. aureus Newman came out at 0.102; in the assay on S. pneumoniae D39V, 0.0879; in the assay on B. subtilis 168 it was 0.0868; in the assay with S. aureus DSM 20231, 0.039.
For `O=C(O)[C@H]1/C(=C/CO)O[C@@H]2CC(=O)N21` [Clavulanic] + O=C(O[C@@H]1Cc2c(O)cc(O)cc2O[C@@H]1c1cc(O)c(O)c(O)c1)c1cc(O)c(O)c(O)c1 [EGCG], in that order: 0.168, 0.0628, -0.0667 and 0.0689.
In the case of `O=C(O)[C@H]1/C(=C/CO)O[C@@H]2CC(=O)N21` [Clavulanic] + Oc1cc(Cl)ccc1Oc1ccc(Cl)cc1Cl [Triclosan], the Bliss interaction score with S. aureus Newman was -0.0656; with S. pneumoniae D39V, 0.0445; with B. subtilis 168 it was 0.0658; in the assay with S. aureus DSM 20231, 0.081.
With `CNC(C)C1CCC(N)C(OC2C(N)CC(N)C(OC3OCC(C)(O)C(NC)C3O)C2O)O1` (stereo unspecified) [Gentamicin] + CC1(C)S[C@@H]2[C@H](NC(=O)Cc3ccccc3)C(=O)N2[C@H]1C(=O)O [PenicillinG], the Bliss interaction score in the assay with S. aureus Newman (main component drawn) is -0.0512; in the assay with S. pneumoniae D39V (main component drawn) it was 0.0914; with B. subtilis 168 (main component drawn) it was 0.0952; in the assay with S. aureus DSM 20231 (main component drawn) it was 0.0582.
As to `CNC(C)C1CCC(N)C(OC2C(N)CC(N)C(OC3OCC(C)(O)C(NC)C3O)C2O)O1` (stereo unspecified) [Gentamicin] + CC[C@H]1OC(=O)[C@H](C)C(=O)[C@H](C)[C@@H](O[C@@H]2O[C@H](C)C[C@H](N(C)C)[C@H]2O)[C@](C)(OC)C[C@@H](C)C(=O)[C@H](C)[C@H]2N(CCCCn3cnc(-c4cccnc4)c3)C(=O)O[C@]12C [Telithromycin], the Bliss interaction score was 0.0544 with S. aureus Newman (main component drawn), 0.0542 in the assay on S. pneumoniae D39V (main component drawn), 0.0903 with B. subtilis 168 (main component drawn) and 0.0492 in the assay with S. aureus DSM 20231 (main component drawn).
